# Measured values: patent US20220184172A1, “AMPK/CASPASE-6 AXIS CONTROLS LIVER DAMAGE IN NONALCOHOLIC STEATOHEPATITIS” (The Regents of the University of California, priority 2019, published 2022)
# How the values were obtained:
# [1] = test system: CD-HFD fed C57BL/6J mice; experiment: AMPK agonist A-769662 in CD-HFD-induced NASH, C57BL/6J mice; assay type: in vivo
# Procedure: FIGS. 4A-4L. Both an AMPK agonist and a caspase-6 inhibitor therapeutically improve liver damage. FIG. 4A-4I. C57BL/6J mice were fed CD-HFD for 6 weeks, followed by intraperitoneally injection of 25 mg/kg A-769662 or vehicle daily for 2 weeks while continuous CD-HFD. FIG. 4A. Liver sections stained as indicated: TUNEL and DAPI. In the merged image section, the different stains correspond to the grayscale shades as indicated in the single stained images to the left. Scale bar=50 μm. FIG. 4B. Quantification of TUNEL-positive nuclei per field in FIG. 4A. n=7. FIG. 4C-4E. Serum ALT (FIG. 4C), AST (FIG. 4D) and ALP (FIG. 4E). n=7. FIG. 4F. H&E and Sirius red staining of liver sections as indicated. Scale bar=100 μm. FIG. 4G. Quantification of liver fibrosis area (% of total area) in FIG. 4F. n=7. FIG. 4H. Liver hydroxyproline. n=8. FIG. 4I. Expression of Tgfb, Timp1, Col1a1, Col3a1, Pdgfa, Pdgfb, Pdgfra and Ddr2 in livers. n=8. *, P<0.05, Student's unpaired t test. FIGS. 4J-4L. Flox and LAKO mice were fed CD-HFD for 6 weeks, followed by intraperitoneally injection of 5 mg/kg VEID (SEQ ID NO: 71) or vehicle every other day for 2 weeks while continuous feeding. FIG. 4J. Liver sections stained as indicated (TUNEL and DAPI); in the merged image sections, the different stains correspond to the grayscale shades as indicated in the single stained images to the left. Scale bar=50 μm. FIG. 4K. Quantification of TUNEL-positive nuclei per field in FIG. 4J. n=5-6. FIG. 4L. Serum ALT. n=5-6. Mean±SEM. *, P<0.05, two-way ANOVA. FIG. 4 discloses “VEID” as SEQ ID NO: 71.
# FIGS. 5A-5K. AMPK phosphorylates caspase-6 to inhibit its cleavage and activation. FIG. 5A. Primary hepatocytes were pretreated 40 μM A-769662 for 1 hr, then treated 30 μg/ml CHX and 50 ng/ml TNFα for 2 hrs. IB analysis of cell lysates. n=3. Mean±SD. *, P<0.05, two-way ANOVA. FIG. 5B. Primary hepatocytes were pretreated 40 μM A-769662 for 1 hr, then treated 250 μM BSA-conjugated palmitic acid (PA) for 2 hrs. Cell lysates were subject to caspase-6 activity assay. Mean±SD. *, P<0.05. FIG. 5C. Caspase-6 Ser^257 locates within AMPK substrate motif. FIG. 5C. discloses SEQ ID NOS 57-63, respectively, in order of appearance. FIG. 5D. In vitro kinase assay using recombinant caspase-6, and recombinant AMPKα1β1γ1 or AMPKα2β1γ1 active kinase. FIG. 5E. Alignment of caspase-6 sequence. FIG. 5E. discloses SEQ ID NOS 64-67, respectively, in order of appearance. FIG. 5F. HEK293T cells overexpressing caspase-6-myc WT, S^257A, S^257D or S^257E mutant were treated with 10 μg/ml CHX and 25 ng/ml TNFα for 2 hrs. IB analysis of cell lysates. FIGS. 5G-5J. C57BL/6J mice were fed CD-HFD for 6 weeks, followed by intraperitoneally injection of 25 mg/kg A-769662 or vehicle daily for 2 weeks while continuous CD-HI-D. Mice were sacrificed 6 hrs after last injection. FIG. 5G. IB analysis of liver lysates. n=5. FIG. 5H. Liver lysates were subject to caspase-6 activity assay. n=7. FIG. 5I. Liver sections stained as indicated therein (aCasp6 and DAPI); in the merged image sections, the different stains correspond to the grayscale shades as indicated in the single stained images to the left. Scale bar=50 μm. FIG. 5J. Quantification of aCasp6 staining per field in FIG. 5I. n=7. Mean±SEM. *, P<0.05, Student's unpaired t test. FIG. 5K. IB analysis of liver lysates from C57BL/6J mice fed ND or CD-HFD. Note: AMPK and pAMPK blots are the same as in FIG. 1B.
# FIGS. 13A-13I. A-769662 improves liver damage through AMPK activation in hepatocytes in NASH. C57BL/6J mice were fed with CD-HFD for 8 weeks. After 6 weeks of CD-HFD feeding, mice were intraperitoneally injected with 25 mg/kg A-769662 or vehicle daily for 2 weeks along with continuous CD-HFD feeding. FIG. 13A. Schematic diagram of experimental design. FIG. 13B-13C. Body weight (FIG. 13B) and liver weight (FIG. 13C) of indicated mice. n=7. FIG. 13D. Measurement of liver triglyceride (TG) of indicated mice. n=7. FIG. 13E. […]
# [2] = test system: caspase-6 activity in primary hepatocytes; experiment: Caspase-6 activity induced by palmitic acid in primary hepatocytes; assay type: cell-based, mice; conditions: 40 μM pretreatment 1 hr, then 250 μM BSA-conjugated palmitic acid 2 hrs
# Procedure: FIGS. 5A-5K. AMPK phosphorylates caspase-6 to inhibit its cleavage and activation. FIG. 5A. Primary hepatocytes were pretreated 40 μM A-769662 for 1 hr, then treated 30 μg/ml CHX and 50 ng/ml TNFα for 2 hrs. IB analysis of cell lysates. n=3. Mean±SD. *, P<0.05, two-way ANOVA. FIG. 5B. Primary hepatocytes were pretreated 40 μM A-769662 for 1 hr, then treated 250 μM BSA-conjugated palmitic acid (PA) for 2 hrs. Cell lysates were subject to caspase-6 activity assay. Mean±SD. *, P<0.05. FIG. 5C. Caspase-6 Ser^257 locates within AMPK substrate motif. FIG. 5C. discloses SEQ ID NOS 57-63, respectively, in order of appearance. FIG. 5D. In vitro kinase assay using recombinant caspase-6, and recombinant AMPKα1β1γ1 or AMPKα2β1γ1 active kinase. FIG. 5E. Alignment of caspase-6 sequence. FIG. 5E. discloses SEQ ID NOS 64-67, respectively, in order of appearance. FIG. 5F. HEK293T cells overexpressing caspase-6-myc WT, S^257A, S^257D or S^257E mutant were treated with 10 μg/ml CHX and 25 ng/ml TNFα for 2 hrs. IB analysis of cell lysates. FIGS. 5G-5J. […] Quantification of aCasp6 staining per field in FIG. 5I. n=7. […]
# Cell/tissue was homogenized with lysis buffer. Caspase-6 activity was determined with Caspase-6 Colorimetric Assay Kit (Biovision, Cat. K115), according to manufacturer's instruction. […]
# [3] = test system: C57BL/6J mice fed 45% HFD; conditions: 30 mg/kg twice per day for 7 days; cited from earlier work
# [4] = 25 mg/kg i.p. daily for 2 weeks, CD-HFD
# [5] = 25 mg/kg i.p. daily for 2 weeks, CD-HFD, sacrificed 6 hrs after last injection
# [6] = 25 mg/kg i.p. once per day for two weeks after 6 weeks CD-HFD
smiles,measurement,setting,value
N#Cc1c(O)c2c(-c3ccc(-c4ccccc4O)cc3)csc2[nH]c1=O [A-769662],"hepatic fibrosis (Sirius red fibrosis area, liver hydroxyproline)",[1]; 25 mg/kg i.p. daily for 2 weeks after 6 weeks CD-HFD,attenuated
same,expression of Col1a1 in liver,[1]; [4],significantly reduced
same,expression of Col3a1 in liver,[1]; [4],significantly reduced
same,expression of Ddr2 in liver,[1]; [4],without effect
same,expression of Pdgfa in liver,[1]; [4],significantly reduced
same,expression of Pdgfb in liver,[1]; [4],significantly reduced
same,expression of Pdgfra in liver,[1]; [4],significantly reduced
same,expression of Tgfb in liver,[1]; [4],without effect
same,expression of inflammation marker gene Adgre1 in liver,[1]; [4],without effect
same,expression of inflammation marker gene Ccl2 in liver,[1]; [4],without effect
same,aCasp6 (active caspase-6) staining of liver sections,"[1]; 25 mg/kg i.p. daily for 2 weeks, CD-HFD-induced NASH",decreased
same,caspase-6 activity in vivo (liver lysates),[1]; [5],decreased
same,procaspase-6 Ser257 phosphorylation (IB of liver lysates),[1]; [5],significantly increased
same,hepatic TG,[1]; [6],no effect
same,"liver damage (serum ALT, AST, ALP)",[1]; [6],improved
same,number of apoptotic cells (TUNEL-positive nuclei per field),[1]; [6],significantly reduced
same,induction of caspase-6 activity by PA,[2],inhibited
same,hepatic triglycerides,[3],reduced
